Experimental data: patent US8877707B2, “Inhibitors of HCV NS5A” (Presidio Pharmaceuticals, Inc., priority 2010, dated 2014)
pEC50: −log10 of the molar value. Like-named read-outs stand apart in the source and are kept apart here.

Test system: HCV genotype 1b replicon in Huh 7 cells
Test: HCV replicon assay (1b_Huh-Luc/Neo-ET cell line, luciferase readout)
Assay type: cell-based
Conditions: Hepatitis C virus, read-out: Inhibition of HCV genotype 1b
Summary of the method: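 Huh 7 cells carrying a bicistronic genotype 1b luciferase replicon were treated with compound in triplicate the day after plating and incubated 72 h. Luciferase activity expressed as % of untreated control; EC50 from a four-parameter logistic fit, repeated several times.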

[1] = Table 1, genotype 1b replicon, Huh 7 cells, 72 h, luciferase
[2] = Table 2, genotype 1b replicon, Huh 7 cells, 72 h, luciferase

COC(=O)N[C@H](C(=O)N1CCC[C@H]1c1ncc(-c2ccc(-c3ccc4cc(-c5cnc([C@@H]6CCCN6C(=O)[C@@H](NC(=O)OC)C6CC6)[nH]5)ccc4c3)cc2)[nH]1)C1CC1 [compound 143]
pEC50 [1]: > 9.00

COC(=O)N[C@H](C(=O)N1CCC[C@H]1c1nc(C2CNc3cc(-c4ccc(-c5cnc([C@@H]6CCCN6C(=O)[C@H](NC(=O)OC6CCOCC6)c6ccccc6)[nH]5)cc4)ccc3C2)c[nH]1)C(C)C (some centres unmarked) [compound 291]
pEC50 [1]: > 9.00

COC(=O)NC(C(=O)N1CCC[C@H]1c1ncc(-c2ccc3cc(-c4ccc5nc([C@@H]6CCCN6C(=O)C(NC(=O)OC)=C(C)C)[nH]c5c4)ccc3c2)[nH]1)=C(C)C [compound 512]
pEC50 (Huh-7, HCV 1b replicon): > 9.00

COC(=O)N[C@H](C(=O)N1CCC[C@H]1c1ncc(-c2ccc(-c3ccc4cc(-c5cnc([C@@H]6CCCN6C(=O)[C@@H](NC(=O)OC)[C@@H](C)OC)[nH]5)ccc4c3)nc2)[nH]1)C(C)C [compound 479]
pEC50 (Huh-7, HCV 1b replicon): > 9.00

COC(=O)N[C@H](C(=O)N1CCC[C@H]1c1ncc(-c2ccc3cc(-c4ccc5nc([C@@H]6CCCN6C(=O)[C@@H](NC(=O)OC)C6CCCCC6)[nH]c5n4)ccc3c2)[nH]1)C1CCCCC1 [compound 517]
pEC50 (Huh-7, HCV 1b replicon): > 9.00

COC(=O)N[C@H](C(=O)N1CCC[C@H]1c1ncc(-c2ccc3cc(-c4ccc5nc([C@@H]6COCCN6C(=O)[C@@H](NC(=O)OC)C6CC6)[nH]c5c4)ccc3c2)[nH]1)C1CC1 [compound 356]
pEC50 [2]: > 9.00

COC(=O)N[C@H](C(=O)N1CCC[C@H]1c1ncc(-c2cccc(-c3cccc4cc(-c5cnc([C@@H]6CCCN6C(=O)[C@@H](NC(=O)OC)C(C)C)[nH]5)ccc34)c2)[nH]1)C(C)C [compound 130]
pEC50 [1]: > 9.00

COC(=O)N[C@H](C(=O)N1CCC[C@H]1c1ncc(-c2ccc3nc(-c4ccc5nc([C@@H]6CCCN6C(=O)[C@@H](NC(=O)OC)C(C)C)[nH]c5c4)ccc3c2)[nH]1)C(C)C [compound 193]
pEC50 [1]: > 9.00

C#CC[C@H](NC(=O)OC)C(=O)N1CCC[C@H]1c1ncc(-c2ccc3nc(-c4ccc(-c5cnc([C@@H]6CCCN6C(=O)[C@H](NC(=O)OC)c6ccccc6)[nH]5)cc4F)ccc3c2)[nH]1 [compound 487]
pEC50 (Huh-7, HCV 1b replicon): > 9.00

COC(=O)N[C@H](C(=O)N1CCC[C@H]1c1nc2ccc(-c3ccc4cc(-c5cnc([C@@H]6CCCN6C(=O)[C@@H](NC(=O)OC)[C@@H](C)OC)[nH]5)ccc4c3)cc2[nH]1)C1CCCC1 [compound 528]
pEC50 (Huh-7, HCV 1b replicon): > 9.00

COC(=O)N[C@H](C(=O)N1CCC[C@H]1CNC(=O)c1ccc(-c2ccc3cc(-c4cnc([C@@H]5CCCN5C(=O)[C@@H](NC(=O)OC)C(C)C)[nH]4)ccc3c2)cc1)C(C)C [compound 565]
pEC50 (Huh-7, HCV 1b replicon): > 9.00

COC(=O)N[C@H](C(=O)N1CCC[C@H]1c1nc2c([nH]1)-c1ccc(-c3ccc4cc(-c5cnc([C@@H]6CCCN6C(=O)[C@H](NC(=O)OC6CCOCC6)c6ccccc6)[nH]5)ccc4n3)cc1CCC2)C(C)C [compound 540]
pEC50 (Huh-7, HCV 1b replicon): > 9.00

COC(=O)N[C@H](C(=O)N1CCC[C@H]1c1ncc(-c2ccc3oc(-c4ccc(-c5cnc([C@@H]6CCCN6C(=O)[C@H](NC(=O)OC)c6ccccc6)[nH]5)cc4)nc3c2)[nH]1)C(C)C [compound 260]
pEC50 [1]: > 9.00

COC(=O)N[C@H](C(=O)N1CCC[C@H]1c1nc(-c2ccc3cc(-c4ccc(-c5cnc([C@@H]6CCCN6C(=O)[C@@H](NC(=O)OC)C6CCOCC6)[nH]5)cc4C)ccc3c2)c[nH]1)C(C)C [compound 86]
pEC50 [1]: > 9.00

COC(=O)N[C@H](C(=O)N1CCC[C@H]1c1ncc(-c2ccc3cc(-c4ccc(-c5cnc([C@@H]6COCCN6C(=O)[C@@H](NC(=O)OC)C(C)C)[nH]5)cc4)ccc3c2)[nH]1)C(C)C [compound 139]
pEC50 [1]: > 9.00

COC(=O)N[C@H](C(=O)N1CCC[C@H]1c1nc(-c2ccc3cc(-c4ccc(-c5cnc([C@@H]6CCCN6C(=O)[C@@H](NC(=O)OC)C(C)C)[nH]5)cc4)ncc3c2)c[nH]1)C(C)C [compound 22]
pEC50 [1]: > 9.00

COC(=O)N[C@H](C(=O)N1CCC[C@H]1c1ncc(-c2ccc(-c3ccc4cc(-c5cnc([C@@H]6CCCN6C(=O)[C@H](NC(=O)OC6CCOCC6)c6ccccc6)[nH]5)ccc4n3)c(F)c2)[nH]1)C(C)C [compound 121]
pEC50 [1]: > 9.00

COC(=O)N[C@@H](C(=O)N1CCC[C@H]1c1nc(-c2ccc3c(c2)CCN(c2c(F)cc(-c4cnc([C@@H]5CCCN5C(=O)[C@H](NC(=O)OC)c5ccccc5)[nH]4)cc2F)C3)c[nH]1)c1ccccc1 [compound 270]
pEC50 [1]: > 9.00

COC(=O)N[C@H](C(=O)N1CCC[C@H]1c1nc(-c2ccc3nc(-c4ccc(-c5cnc([C@@H]6CCCN6C(=O)[C@@H](NC(=O)OC)C(C)C)[nH]5)nc4)ccc3c2)c[nH]1)C(C)C [compound 53]
pEC50 [1]: > 9.00

COC(=O)N[C@H](C(=O)N1CCC[C@H]1c1ncc(-c2ccc3nc(-c4ccc(-c5cnc([C@@H]6CCCN6C(=O)[C@H](NC(=O)OC)c6ccccc6)[nH]5)c(F)c4)ccc3c2)[nH]1)C1CCCC1 [compound 468]
pEC50 (Huh-7, HCV 1b replicon): > 9.00

COC(=O)N[C@H](C(=O)N1CCC[C@H]1c1nc2ccc(-c3ccc4cc(-c5ccc6nc([C@@H]7CCCN7C(=O)[C@@H](NC(=O)OC)C(C)C)[nH]c6c5)ncc4c3)cc2[nH]1)C(C)C [compound 281]
pEC50 [1]: > 9.00

COC(=O)N[C@H](C(=O)N1CCC[C@H]1c1nc(-c2ccc3cc(-c4ccc(-c5cnc([C@@H]6CCCN6C(=O)[C@@H](NC(=O)OC)C6CCOCC6)[nH]5)cn4)ccc3c2)c[nH]1)C(C)C [compound 51]
pEC50 [1]: > 9.00

COC(=O)N[C@H](C(=O)N1CCC[C@H]1c1nc2ccc(-c3ccc4cc(-c5cnc([C@@H]6CCCN6C(=O)[C@@H](NC(=O)OC)[C@@H](C)OC)[nH]5)ccc4c3)cc2[nH]1)C1CCCCC1 [compound 529]
pEC50 (Huh-7, HCV 1b replicon): > 9.00

COC(=O)N[C@H](C(=O)N1CCC[C@H]1c1ncc(-c2ccc3cc(-c4ccc(-c5cnc([C@@H]6CCCN6C(=O)[C@H](NC(=O)OC)c6cccs6)[nH]5)cc4)ccc3c2)[nH]1)C(C)O (some centres unmarked) [compound 498]
pEC50 (Huh-7, HCV 1b replicon): > 9.00

COC(=O)N[C@H](C(=O)N1CCC[C@H]1c1nc(-c2ccc3[nH]c(-c4ccc(-c5cnc([C@@H]6CCCN6C(=O)[C@@H](NC(=O)OC)C(C)C)[nH]5)cc4)cc(=O)c3c2)c[nH]1)C(C)C [compound 76]
pEC50 [1]: > 9.00

COC(=O)N[C@H](C(=O)N1CCC[C@H]1c1ncc(-c2ccc3cc(-c4cc5[nH]c([C@@H]6CCCN6C(=O)[C@@H](NC(=O)OC)C(C)C)nc5cn4)ccc3c2)[nH]1)C(C)C [compound 527]
pEC50 (Huh-7, HCV 1b replicon): > 9.00

COC(=O)N[C@H](C(=O)N1CCC[C@H]1c1nc2ccc(-c3ccc4cc(-c5ccc6nc([C@@H]7CCCN7C(=O)[C@@H](NC(=O)OC)C(C)C)[nH]c6c5)nnc4c3)cc2[nH]1)C(C)C [compound 537]
pEC50 (Huh-7, HCV 1b replicon): > 9.00

COC(=O)N[C@H](C(=O)N1CCC[C@H]1c1ncc(-c2ccc(-c3cc4ccc(-c5cnc([C@@H]6CCCN6C(=O)[C@H](NC(=O)OC)c6ccccc6)[nH]5)cc4cn3)c(F)c2)[nH]1)C(C)C [compound 167]
pEC50 [1]: > 9.00

COC(=O)N[C@H](C(=O)N1CCC[C@H]1c1ncc(-c2ccc3cc(-c4ccc5nc([C@@H]6CCCN6C(=O)[C@@H](c6ccccc6)N6CCCC6)[nH]c5c4)ccc3c2)[nH]1)C(C)C [compound 180]
pEC50 [1]: > 9.00

COC(=O)N[C@H](C(=O)N1CCC[C@H]1c1ncc(-c2ccc3cc(-c4ccc(-c5cnc([C@@H]6CCCN6C(=O)[C@H](NC(=O)OC)c6cccs6)[nH]5)cc4)ccc3c2)[nH]1)[C@@H](C)OC [331-1]
pEC50 [2]: > 9.00

COC(=O)N[C@H](C(=O)N1CCC[C@H]1c1ncc(-c2ccc(-c3cnc4ccc(-c5cnc([C@@H]6CCCN6C(=O)[C@@H](NC(=O)OC)C(C)C)[nH]5)cc4n3)cc2)[nH]1)C(C)C [compound 12]
pEC50 [1]: 8.00 to 9.00

COC(=O)N[C@H](C(=O)N1CCC[C@H]1c1ncc(-c2cnc3cc(-c4ccc5nc([C@@H]6CCCN6C(=O)[C@@H](NC(=O)OC)C(C)C)[nH]c5c4)ccc3c2)[nH]1)C(C)C [compound 187]
pEC50 [1]: > 9.00

COC(=O)N[C@H](C(=O)N1CCC[C@H]1c1ncc(-c2ccc3cc(-c4ccc5nc([C@@H]6CCCN6C(=O)[C@@H](NC(=O)OC)C6CCOCC6)[nH]c5c4)ncc3c2)[nH]1)C1CCOCC1 [compound 217]
pEC50 [1]: 8.00 to 9.00

C=CC[C@H](NC(=O)OC)C(=O)N1CCC[C@H]1c1ncc(-c2ccc3nc(-c4ccc(-c5cnc([C@@H]6CCCN6C(=O)[C@@H](NC(=O)OC)C(C)C)[nH]5)cc4F)ccc3c2)[nH]1 [compound 159]
pEC50 [1]: > 9.00

COC(=O)N[C@H](C(=O)N1CCC[C@H]1c1ncc(-c2ccc(-c3ccc4cc(-c5cnc([C@@H]6CCCN6C(=O)[C@H](NC(=O)OC)C6C=CCC=C6)[nH]5)ccc4n3)c(F)c2)[nH]1)C1CCOCC1 [compound 163]
pEC50 [1]: > 9.00

COC(=O)N[C@H](C(=O)N1CCC[C@H]1c1ncc(-c2ccc3cc(-c4ccc(-c5cnc([C@@H]6CCCN6C(=O)[C@@H](c6ccccc6)N6CCOCC6)[nH]5)cc4)ccc3c2)[nH]1)C(C)C [compound 116]
pEC50 [1]: > 9.00

CCNC(=O)N[C@@H](C(=O)N1CCC[C@H]1c1ncc(-c2ccc3nc(-c4ccc(-c5cnc([C@@H]6CCCN6C(=O)[C@@H](NC(=O)OC)C(C)C)[nH]5)cc4)oc3c2)[nH]1)c1ccccc1 [compound 252]
pEC50 [1]: > 9.00

CCC(CC)[C@H](NC(=O)OC)C(=O)N1CCC[C@H]1c1ncc(-c2ccc(-c3ccc4cc(-c5cnc([C@@H]6CCCN6C(=O)[C@@H](NC(=O)OC)[C@@H](C)OC)[nH]5)ccc4c3)cc2)[nH]1 [compound 505]
pEC50 (Huh-7, HCV 1b replicon): > 9.00

COC(=O)N[C@H](C(=O)N1CCC[C@H]1c1nc(-c2ccc3cc(-c4ccc(-c5cnc([C@@H]6CCCN6C(=O)[C@H](NC(=O)OC)c6ccccc6)[nH]5)cc4)ccc3c2)c[nH]1)C(C)C [compound 8]
pEC50 [1]: > 9.00

COC(=O)N[C@@H](C)C(=O)N1CCC[C@H]1c1ncc(-c2ccc3cc(-c4ccc(-c5cnc([C@@H]6COCCN6C(=O)[C@H](NC(=O)OC)c6ccccc6)[nH]5)cc4)ccc3c2)[nH]1 [compound 322]
pEC50 [2]: > 9.00

COC(=O)N[C@H](C(=O)N1CCC[C@H]1c1ncc(-c2ccc(-c3ccc4cc(-c5c[nH]c([C@@H]6CCCN6C(=O)[C@H](NC(=O)OC)c6ccccc6)n5)ccc4c3)c(F)c2)[nH]1)C(C)C [compound 67]
pEC50 [1]: > 9.00
